For one molecule, inhibition results are on record in ChEMBL document CHEMBL5030528, “Xanthine Derivatives Reveal an Allosteric Binding Site in Methylenetetrahydrofolate Dehydrogenase 2 (MTHFD2)” (J Med Chem, 2021).

The structures appear in SMILES notation. The source made the active and inactive calls. No cut-off for these calls is given here.

Test [1] deals with T1, Bifunctional methylenetetrahydrofolate dehydrogenase/cyclohydrolase, mitochondrial (Homo sapiens) (UniProt P13995).
T1 sequence (whole entry): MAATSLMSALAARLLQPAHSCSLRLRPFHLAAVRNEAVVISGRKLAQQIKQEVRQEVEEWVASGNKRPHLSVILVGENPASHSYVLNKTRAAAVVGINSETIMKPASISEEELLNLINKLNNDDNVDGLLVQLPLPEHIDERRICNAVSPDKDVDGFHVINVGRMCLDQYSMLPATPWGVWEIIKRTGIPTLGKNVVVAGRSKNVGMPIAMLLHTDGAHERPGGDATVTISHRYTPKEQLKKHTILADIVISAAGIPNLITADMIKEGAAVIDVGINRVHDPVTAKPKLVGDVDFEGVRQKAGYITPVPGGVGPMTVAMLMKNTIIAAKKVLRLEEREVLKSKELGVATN
Put plainly: Uncompetitive inhibition of C-terminal His-tagged human MTHFD2 (36 to 350 residues) expressed in insect cells assessed as decrease in Km by using varying levels of tetrahydrofolate as substrate by double-reciprocal plot analysis. Particulars: time 10.0 min.

Test [2] has as its target T1, Bifunctional methylenetetrahydrofolate dehydrogenase/cyclohydrolase, mitochondrial (Homo sapiens). The test can be described thus: Uncompetitive inhibition of C-terminal His-tagged human MTHFD2 (36 to 350 residues) expressed in insect cells assessed as decrease in Vmax using varying levels of tetrahydrofolate as substrate by double-reciprocal plot analysis. Particulars: time 10.0 min.

In the case of `Cc1cc(Nc2nc3c(c(=O)n(Cc4cc5c(Cl)cccc5[nH]4)c(=O)n3C)n2C)nc(CCC(=O)O)n1`, the inhibition entry in test [1] and in test [2] was “Active” each time.
